Assay results taken from patent US20240165023A1, “LIQUID PHARMACEUTICAL COMPOSITION” (Verona Pharma PLC, priority 2022, published 2024).

What was measured:
[1] = test system: patients with moderate to severe COPD; experiment: Clinical study of nebulised ensifentrine 3 mg BID vs placebo, lung function (FEV1) in COPD; format: in vivo, human; conditions: 3 mg BID by nebuliser
Procedure: A clinical study was conducted to determine the efficacy of ensifentrine in treating COPD compared with placebo. Ensifentrine was administered by nebuliser at a dose of 3 mg twice daily (BID) for 24 weeks. The study was a multi-centre, randomized, double-blind, parallel-group, placebo-controlled trial with around 800 patients and 5:3 randomization.
The study population included patients aged 40-80 years with moderate to severe COPD (FEV1 30%-70% p.n., FEV1/forced vital capacity (FVC) ratio <0.7, with mMRC 2). The randomization stratified (a) the use of stable background maintenance LAMA or LABA therapy use (approx. 50%. yes or no) and (b) cigarette smoking (current or former). Inhaled corticosteroid (ICS) maintenance therapy was permitted in up to 20% of patients under certain provisions.
The primary endpoint of the study was change from baseline in average FEV1 area under the curve (AUC)0-12 h post-dose at week 12. Secondary endpoints of the study included: peak FEV1 over 4 hours post-dose at Week 12; morning trough FEV1 at Week 12; and other endpoints including moderate/severe COPD exacerbations frequency over 24 Weeks.
Baseline FEV1 is the mean of the two measurements taken before study medication on the day of first dosing, i.e. <40 minutes and just prior to dosing, both pre-dose on day 1.
Average FEV1 AUC0-12 h is defined as area under the curve over 12 hours of the FEV1, divided by 12 hours.
The investigational product and placebo were provided in 2.5 mL unit dose format in an ampule and administered via a nebuliser. The formulation of the investigational product (ensifentrine suspension formulation comprising crystalline polymorph Form I of ensifentrine) and placebo are shown in Table 1 below.

[2] = Plasma pharmacokinetics of ensifentrine after administration of the composition to healthy patients; format: in vivo; conditions: human, inhaled
[3] = Plasma pharmacokinetics of ensifentrine in COPD patients, popPK model simulation from trial samples; format: in vivo, human
Procedure: Plasma concentrations of ensifentrine for the assessment of pharmacokinetic (PK) parameters were measured using validated bioanalytical methods for ensifentrine in human plasma with LLOQ of 5 pg/mL.
Samples were taken on the following schedule: • Week 6: 1.0 h (±0.5 h) and 2.5 h (±0.5 h) (even sites) or 1.5 h and 4 h (±1 h) (odd sites); • Week 12: pre-dose (−0.5 h), 4 to 6 h, and 8 to 12 h (even sites) or 0.5 h (±0.25 h), 3 h (±0.5 h), and 6 to 8 h (odd sites); • Week 24: pre-dose (−0.5 h) and 1.5 h (even sites) or pre-dose (−0.5 h) and 1 h (±0.5 h) (odd sites)
Based on the samples taken during the trial, PK data was modelled for COPD patients with normal renal function. The final popPK model was used to predict parameter estimates in a virtual population of 50000 subjects (per covariate condition) for simulation of ensifentrine PK following nebulization of 3 mg in a population reflecting the population in the trial with normal renal function or mild renal impairment, or with moderate renal impairment. Uncertainty in fixed effects and covariance matrix parameters as well as residual variability were included in the simulations. The parameter uncertainty was accounted for by random resampling (without replacement) of 500 sets of parameter estimates from the bootstrap (750 replicates) in R to create 500 NONMEM simulation control streams. From each set of parameter estimates, the PK profiles for 100 subjects (for each covariate condition) were simulated with IV and IOV from the covariance matrix and residual error in NONMEM. Individual subject concentrations were simulated using NONMEM version 7.4.3, and PK parameters were calculated using R version 3.4.0.

[4] = human, plasma, inhaled, 3 mg, patients with COPD
[5] = nebulization of 3 mg, COPD patients with normal renal function, popPK simulation in virtual population

SMILES: COc1cc2c(cc1OC)-c1c/c(=N\c3c(C)cc(C)cc3C)n(CCNC(N)=O)c(=O)n1CC2 [Ensifentrine, N-(2-{(2E)-9,10-dimethoxy-4-oxo-2-[(2,4,6-trimethylphenyl)imino]-6,7-dihydro-2H-pyrimido[6,1-a]isoquinolin-3(4H)-yl}ethyl)urea]
- primary endpoint of average FEV1 (AUC)0-12 h at Week 12 ([1]; Week 12): met
- Average FEV1 (AUC)0-12 h post-dose at Week 12: Change from Baseline (CFB) Least Squares Mean ([1]; Week 12, n = 498, COPD patients): 48.2 mL
- Average FEV1 (AUC)0-12 h post-dose at Week 12: Placebo-corrected CFB LS Mean Diff. ([1]; Week 12, vs placebo (n = 291)): 93.9 mL
- improvement in lung function in subgroups of COPD patients ([1]; all subgroups): improvement in lung function with ensifentrine that was statistically significant
- Cmax [2]: 0.852 ng/mL
- AUC(0-inf) ([2]; read-out: mean AUC0-∞): 5.93 ng·h/mL
- systemic exposure in COPD patients compared with healthy patients ([3]; COPD patients vs healthy patients): lower systemic exposure
- AUC [3, 4]: 2.45 ng·h/mL
- Cmax [3, 4]: 0.522 ng/mL
- AUC0-tau, Median (90% prediction interval) [3, 5]: 2450 (882-7500) pg/mL * h
- Cmax, Median (90% prediction interval) [3, 5]: 522 (173-1330) pg/mL
- tmax, Median [3, 5]: 1.0 h
